Test results reported in ChEMBL document CHEMBL6109101, “Synthesis and bioactivity of cyclic peptide GG-8-6 analogues as anti-hepatocellular carcinoma agents” (Eur J Med Chem, 2025).

Assays:
[1] = Toxicity in nude mouse implanted with human MHCC97H cells assessed as body weight at 10 mg/kg, po administered daily for 3 weeks and measured immediately (reference value: 25.05 g); assay type: organism-based; details: in vivo, 504 h
[2] = Toxicity in nude mouse implanted with human MHCC97H cells assessed as spleen damage at 5 to 15 mg/kg, po administered daily for 3 weeks by H and E staining based analysis; assay type: organism-based; details: in vivo, 504 h, dose 5-15 mg/kg
[3] = Toxicity in nude mouse implanted with human MHCC97H cells assessed as lung damage at 5 to 15 mg/kg, po administered daily for 3 weeks by H and E staining based analysis; assay type: organism-based; details: in vivo, 504 h, dose 5-15 mg/kg
[4] = Toxicity in nude mouse implanted with human MHCC97H cells assessed as body weight at 10 mg/kg, po administered daily for 3 weeks and measured at day 22 (reference value: 26.38 g); assay type: organism-based; details: in vivo, 1032 h, time 43 day
[5] = Toxicity in nude mouse implanted with human MHCC97H cells assessed as kidney damage at 5 to 15 mg/kg, po administered daily for 3 weeks by H and E staining based analysis; assay type: organism-based; details: in vivo, 504 h, dose 5-15 mg/kg
[6] = Toxicity in nude mouse implanted with human MHCC97H cells assessed as body weight at 15 mg/kg, po administered daily for 3 weeks and measured immediately (reference value: 25.05 g); assay type: organism-based; details: in vivo, 504 h
[7] = Toxicity in nude mouse implanted with human MHCC97H cells assessed as body weight at 5 mg/kg, po administered daily for 3 weeks and measured at day 22 (reference value: 26.38 g); assay type: organism-based; details: in vivo, 1032 h, time 43 day
[8] = Toxicity in nude mouse implanted with human MHCC97H cells assessed as heart damage at 5 to 15 mg/kg, po administered daily for 3 weeks by H and E staining based analysis; assay type: organism-based; details: in vivo, 504 h, dose 5-15 mg/kg
[9] = Toxicity in nude mouse implanted with human MHCC97H cells assessed as liver damage at 5 to 15 mg/kg, po administered daily for 3 weeks by H and E staining based analysis; assay type: organism-based; details: in vivo, 504 h, dose 5-15 mg/kg
Huh-7 [10] = assay: Cytotoxicity against human Huh-7 cells assessed as inhibition of cell proliferation incubated for 48 hrs by MTT assay; assay type: functional, cell-based; details: Huh-7, 48 h
[11] = Toxicity in nude mouse implanted with human MHCC97H cells assessed as body weight at 15 mg/kg, po administered daily for 3 weeks and measured at day 22 (reference value: 26.38 g); assay type: organism-based; details: in vivo, 1032 h, time 43 day
[12] = Toxicity in nude mouse implanted with human MHCC97H cells assessed as body weight at 5 mg/kg, po administered daily for 3 weeks and measured immediately (reference value: 25.05 g); assay type: organism-based; details: in vivo, 504 h
HepG2 [13] = assay: Cytotoxicity against human HepG2 cells assessed as inhibition of cell proliferation incubated for 48 hrs by MTT assay; assay type: functional, cell-based; details: HepG2, 48 h
HCCLM3 [14] = assay: Cytotoxicity against human HCCLM3 cells assessed as inhibition of cell proliferation incubated for 48 hrs by MTT assay; assay type: functional, cell-based; details: HCCLM3, 48 h
MHCC97H [15] = assay: Cytotoxicity against human MHCC97H cells assessed as inhibition of cell proliferation incubated for 48 hrs by MTT assay; assay type: functional, cell-based
MHCC97H [16] = assay: Antitumor activity against human MHCC97H cells xenografted in nude mouse assessed as tumor weight at 20 mg/kg, po administered daily for 3 weeks (reference value: 1.667g); assay type: functional
[17] = Toxicity in nude mouse implanted with human MHCC97H cells assessed as body weight at 20 mg/kg, po administered daily for 3 weeks and measured immediately (reference value: 25.05 g); assay type: organism-based; details: in vivo, 504 h
MHCC97H [18] = assay: Antitumor activity against human MHCC97H cells xenografted in nude mouse assessed as tumor growth inhibition at 20 mg/kg, po administered daily for 3 weeks relative to control; assay type: functional; details: 504 h, read-out: TGI
MHCC97H [19] = assay: Antiproliferative activity against human MHCC97H cells assessed as reduction in intracellular ATP level at 10 uM incubated for 48 hrs by luminometer analysis relative to control; assay type: functional; parameters: scale not given: the % may be the effect or the level left
MHCC97H [20] = assay: Antitumor activity against human MHCC97H cells xenografted in nude mouse assessed as tumor weight at 5 mg/kg, po administered daily for 3 weeks (reference value: 1.667g); assay type: functional
MHCC97H [21] = assay: Antitumor activity against human MHCC97H cells xenografted in nude mouse assessed as tumor weight at 15 mg/kg, po administered daily for 3 weeks (reference value: 1.667g); assay type: functional
Huh-7 [22] = assay: Antiproliferative activity against human Huh-7 cells assessed as reduction in intracellular ATP level at 10 uM incubated for 48 hrs by luminometer analysis relative to control; assay type: functional; parameters: scale not given: the % may be the effect or the level left
HepG2 [23] = assay: Antiproliferative activity against human HepG2 cells assessed as reduction in intracellular ATP level at 10 uM incubated for 48 hrs by luminometer analysis relative to control; assay type: functional; parameters: scale not given: the % may be the effect or the level left
MHCC97H [24] = assay: Antitumor activity against human MHCC97H cells xenografted in nude mouse assessed as tumor growth inhibition at 15 mg/kg, po administered daily for 3 weeks relative to control; assay type: functional; details: 504 h, read-out: TGI
HCCLM3 [25] = assay: Antiproliferative activity against human HCCLM3 cells assessed as reduction in intracellular ATP level at 10 uM incubated for 48 hrs by luminometer analysis relative to control; assay type: functional; parameters: scale not given: the % may be the effect or the level left
MHCC97H [26] = assay: Antitumor activity against human MHCC97H cells xenografted in nude mouse assessed as tumor growth inhibition at 5 mg/kg, po administered daily for 3 weeks relative to control; assay type: functional; details: 504 h, read-out: TGI
MHCC97H [27] = assay: Antitumor activity against human MHCC97H cells xenografted in nude mouse assessed as tumor growth inhibition at 10 mg/kg, po administered daily for 3 weeks relative to control; assay type: functional; details: 504 h, read-out: TGI
MHCC97H [28] = assay: Antiproliferative activity against human MHCC97H cells assessed as reduction in intracellular ATP level at 30 uM incubated for 48 hrs by luminometer analysis relative to control; assay type: functional; parameters: scale not given: the % may be the effect or the level left
MHCC97H [29] = assay: Antitumor activity against human MHCC97H cells xenografted in nude mouse assessed as tumor weight at 10 mg/kg, po administered daily for 3 weeks (reference value: 1.667g); assay type: functional

## CC[C@H](C)[C@@H]1NC(=O)[C@@H]2CCCN2C(=O)[C@H](CC(C)C)NC(=O)[C@H](CO)NC(=O)[C@H](CC(C)C)NC(=O)[C@H](C(C)C)NC(=O)[C@H](CC(C)C)NC(=O)[C@H](CC(C)C)NC(=O)[C@H](CC(C)C)NC1=O [listing 1 of 2 here]
[1]
  Activity: 25 g
[2]
  Activity: Non-toxic
[3]
  Activity: Non-toxic
[4]
  Activity: 26.3 g
[5]
  Activity: Non-toxic
[6]
  Activity: 24.9 g
[7]
  Activity: 26.38 g
[8]
  Activity: Non-toxic
[9]
  Activity: Non-toxic
Huh-7 [10]
  IC50: > 100 µM
[11]
  Activity: 26.3 g
[12]
  Activity: 25.43 g
HepG2 [13]
  IC50: > 100 µM
HCCLM3 [14]
  IC50: 35.7 µM
MHCC97H [15]
  IC50: 33.3 µM

## CNC(=O)c1cc(Oc2ccc(NC(=O)Nc3ccc(Cl)c(C(F)(F)F)c3)cc2)ccn1 [SORAFENIB]
MHCC97H [16]
  Activity: 0.955 g
[17]
  Activity: 26.85 g
Huh-7 [10]
  IC50: 13.8 µM
MHCC97H [18]
  inhibition in vivo at 20 mg/kg: 42.8%
HepG2 [13]
  IC50: 13.8 µM
HCCLM3 [14]
  IC50: 9.22 µM
MHCC97H [15]
  IC50: 15.2 µM

## CC[C@H](C)[C@@H]1NC(=O)[C@@H]2CCCN2C(=O)[C@H](CC(C)C)NC(=O)[C@H](CO)NC(=O)[C@H](CC(C)C)NC(=O)[C@H](C(C)C)NC(=O)[C@H](CC(C)C)NC(=O)[C@H](CC(C)C)NC(=O)[C@H](CC(C)C)NC1=O [listing 2 of 2 here]
MHCC97H [19]
  Activity: 47.3%
MHCC97H [20]
  Activity: 0.552 g
MHCC97H [21]
  Activity: 0.695 g
Huh-7 [22]
  Activity: 47.3%
HepG2 [23]
  Activity: 47.1%
MHCC97H [24]
  inhibition in vivo at 15 mg/kg: 58.4%
HCCLM3 [25]
  Activity: 45.9%
MHCC97H [26]
  inhibition in vivo at 5 mg/kg: 66.9%
MHCC97H [27]
  inhibition in vivo at 10 mg/kg: 56.1%
MHCC97H [28]
  Activity: 61.9%
MHCC97H [29]
  Activity: 0.732 g
